Results published in the supplement of paper PMC10307832.

Assays:
Experiment in all cases: relative viability (nuclei count vs DMSO), 5 days (fraction); higher = more cells survive
[1] = compound: CC[C@H](C)N1C=C(C2=C(C=C(C=C21)C3=CN=C(C=C3)N4CCNCC4)C(=O)NCC5=C(C=C(NC5=O)C)C)C [GSK126] + Cc1cc(Nc2cc(N3CCN(C)CC3)nc(Sc3ccc(NC(=O)C4CC4)cc3)n2)n[nH]1 [Tozasertib] (partner 0.1 µM)
How it was run: (§1)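 Lung cancer cell lines in 1536-well plates were dosed by pin tool the day after seeding, either with one drug alone or with a fixed anchor-drug dose plus five library-drug doses (not always all listed) in √10 steps. After 5 days, cells were fixed and their nuclei stained in one step (final 0.05% Triton X-100, 1% formaldehyde, 1 ug/ml Hoechst), then counted on 4× images. Relative viability is the nuclei count in treated wells divided by that in vehicle wells. Values are medians of duplicate plates.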

[2] = compound: CC[C@H](C)N1C=C(C2=C(C=C(C=C21)C3=CN=C(C=C3)N4CCNCC4)C(=O)NCC5=C(C=C(NC5=O)C)C)C [GSK126] + CC(C)C[C@H](NC(=O)[C@H](Cc1ccccc1)NC(=O)c1cnccn1)B(O)O [Bortezomib] (partner 0.002 µM)
How it was run: as §1

[3] = compound: NS(=O)(=O)OC[C@@H]1C[C@@H](n2ccc3c(N[C@H]4CCc5ccccc54)ncnc32)C[C@@H]1O [MLN4924] + CC1(C)CCC(c2ccc(Cl)cc2)=C(CN2CCN(c3ccc(C(=O)NS(=O)(=O)c4ccc(N[C@H](CCN5CCOCC5)CSc5ccccc5)c(S(=O)(=O)C(F)(F)F)c4)cc3)CC2)C1 [Navitoclax] (partner 0.5 µM)
How it was run: as §1

[4] = compound: NS(=O)(=O)OC[C@@H]1C[C@@H](n2ccc3c(N[C@H]4CCc5ccccc54)ncnc32)C[C@@H]1O [MLN4924] + Nc1nc2[nH]cc(CCc3ccc(C(=O)N[C@@H](CCC(=O)O)C(=O)O)cc3)c2c(=O)[nH]1 [Pemetrexed] (partner 0.2 µM)
How it was run: as §1

Row | Cell Line | relative viability ([1]; first compound 0.08 µM) | relative viability ([1]; first compound 0.253 µM) | relative viability ([1]; first compound 0.8 µM) | relative viability ([1]; first compound 2.53 µM) | relative viability ([1]; first compound 8 µM) | relative viability ([2]; first compound 0.08 µM) | relative viability ([2]; first compound 0.253 µM) | relative viability ([2]; first compound 0.8 µM) | relative viability ([2]; first compound 2.53 µM) | relative viability ([2]; first compound 8 µM) | relative viability ([3]; first compound 0.04 µM) | relative viability ([3]; first compound 0.1265 µM) | relative viability ([3]; first compound 0.4 µM) | relative viability ([3]; first compound 1.265 µM) | relative viability ([3]; first compound 4 µM) | relative viability ([4]; first compound 0.04 µM) | relative viability ([4]; first compound 0.1265 µM) | relative viability ([4]; first compound 0.4 µM) | relative viability ([4]; first compound 1.265 µM) | relative viability ([4]; first compound 4 µM)
1 | NCI-H1755 | 0.577 | 0.64 | 0.53 | 0.552 | 0.508 | 0.979 | 0.978 | 1.05 | 0.839 | 0.922 | 0.921 | 0.677 | 0.392 | 0.178 | 0.154 | 0.378 | 0.268 | 0.282 | 0.178 | 0.186
2 | NCI-H1651 | 0.717 | 0.728 | 0.864 | 0.57 | 0.537 | 1.03 | 0.949 | 0.981 | 1.01 | 0.996 | 1.1 | 1.08 | 0.492 | 0.267 | 0.142 | 0.632 | 0.693 | 0.703 | 0.509 | 0.171
3 | HCC-366 | 0.193 | 0.117 | 0.123 | 0.0783 | 0.0929 | 1.1 | 1.05 | 1.03 | 1.06 | 1.05 | 1.06 | 1.09 | 0.353 | 0.241 | 0.0154 | 0.161 | 0.153 | 0.129 | 0.107 | 0.0292
4 | PC-14 | 0.614 | 0.674 | 0.639 | 0.535 | 0.403 | 0.774 | 0.943 | 0.895 | 0.781 | 0.782 | 0.997 | 0.788 | 0.593 | 0.13 | 0.0891 | 0.157 | 0.128 | 0.0989 | 0.0654 | 0.0612
5 | ChaGo-K-1 | 0.237 | 0.238 | 0.216 | 0.233 | 0.201 | 0.969 | 1.02 | 0.979 | 1.19 | 1.06 | 0.708 | 0.574 | 0.394 | 0.309 | 0.326 | 0.272 | 0.258 | 0.251 | 0.179 | 0.181
6 | NCI-H441 | 0.68 | 0.571 | 0.567 | 0.545 | 0.461 | 0.445 | 0.452 | 0.419 | 0.507 | 0.519 | 0.708 | 0.489 | 0.357 | 0.138 | 0.173 | 0.248 | 0.222 | 0.234 | 0.139 | 0.187
7 | NCI-H1734 | 0.322 | 0.235 | 0.295 | 0.224 | 0.283 | 0.98 | 0.979 | 1.02 | 0.87 | 0.871 | 0.943 | 0.814 | 0.331 | 0.103 | 0.0958 | 0.497 | 0.514 | 0.252 | 0.128 | 0.125
8 | EMC-BAC-2 | 0.306 | 0.266 | 0.154 | 0.238 | 0.249 | 1.02 | 1.04 | 1.05 | 1.03 | 1.05 | 1.02 | 0.486 | 0.271 | 0.16 | 0.159 | 0.491 | 0.537 | 0.42 | 0.255 | 0.277
